Assay results: publication PMC9301920, “Physiologically Based Toxicokinetic Modeling of Bisphenols in Zebrafish (Danio rerio) Accounting for Variations in Metabolic Rates, Brain Distribution, and Liver Accumulation” (Environmental Science & Technology, 2022)
Read-outs that look alike come from different tables or passages of the source.

Experiments:
Estrogen receptor (ER) = target: Estrogen receptor (ER); set-up: method as in Kitamura et al. 2005; conditions: ERE-luciferase reporter assay, MCF-7 cells; ref Kitamura et al. 2005; cited from earlier work
[1] = In vitro biotransformation rate, rainbow trout liver S9 (OECD TG 319); type: in vitro ADME
Description: In brief, rainbow trout liver S9 homogenate was preincubated in buffer and cofactors, followed by 120 min of incubation with bisphenol. From each duplicate, 50 μL of subsamples was taken at timepoints 0, 2, 5, 15, 30, 60, 90, and 120 min and mixed with 200 μL of ice-cold methanol. The protocol of the procedure is described further in Section 2.
1042. Biotransformation rate estimation methodology
106Trinova Biochem; Lot: 180216) was pre-incubated at 11°C in K 2HPO4/KH2PO4 buffer
107(pH=7.8; 1 mL final volume) containing alamethicin from Trichoderma viride (25 μg/mL), and
108cofactors NADPH (2 mM), UDPGA (2 mM), GSH (5 mM), and PAPS (0.1 mM). After 10 min
109of preincubation, biotransformation was started by adding 5 µL of bisphenol test compound
110dissolved in methanol (1 µM final concentration). […]

[2] = In vivo zebrafish kinetics of BPZ (water exposure, organ concentrations by LC-MS/MS); set-up: species or system zebrafish (Danio rerio); conditions: female, zebrafish; for concentration at 12 h / concentration at 483 h / concentration at 486 h / concentration at 492 h / concentration at 504 h / concentration at 576 h / concentration at 6 h / concentration at 24 h / concentration at 48 h / concentration at 72 h / concentration at 336 h / concentration at 411 h / concentration at 480 h: female zebrafish; for concentration at 483 h: 483 h (depuration phase); for concentration at 486 h: 486 h (depuration phase); for concentration at 492 h: 492 h (depuration phase); for concentration at 504 h: 504 h (depuration phase); for concentration at 576 h: 576 h (depuration phase); for concentration at 480 h: 480 h (one outlier fish removed); for Cmax / half-life: 17 μg/L in water, observed
Description: (§1) At sampling, adult fish were euthanized by immersion in a sodium bicarbonate-buffered tricaine methanesulfonate solution (MS222: 500 mg/L) and decapitated thereafter. […] Additionally, three whole fish were sampled at timepoints of 6, 12, and 24 h of the exposure phase. Water from the fish tank was sampled at 0, 12, 24, 48, 72, 168, 336, 411, and 480 h after exposure start as well as at 0, 12, 24, and 96 h after the start of depuration. Control fish and tank water were sampled before the start of exposure. All samples were immediately stored at −20 °C until further analysis. […]
(§2) 1223. In Vivo Zebrafish Kinetics of BPZ
(§3) 123Adult zebrafish were purchased from a local supplier in Uppsala, Sweden, and acclimatized for
(§4) 1246 weeks before the start of the study. The zebrafish were kept in 26 °C charcoal filtered tap
(§5) 173NH 4OH and 4 ml acetonitrile/tetrahydofuran (1:1) mixture. The 4 ml 2% formic acid in
(§6) 174methanol eluates were evaporated until dry. Remaining residues were then reconstituted in 50
(§7) 175µl water and methanol 50/50 v/v mixture. Extracts were stored at 4°C until measurement.
(§8) 176The extracts were measured on a LC (ExionLC, Sciex) coupled with a Turbo V Ion source (ESI)
(§9) 178Sciex). Separation of compound was done on a phenyl-hexyl column (Kinetex, 100 x 2.1 mm,
(§10) 1791.7 µm, Phenomenex) set at 45°C using a gradient of 0.2 mM NH 4F and 0.2 mM NH4F in
(§11) 180acetonitrile. The applied MRM transitions and MS/MS settings are described in Tables S5-S8.
(§12) LC column Kinetex Phenyl-hexyl column, 1.7 µm, 2,1 mm X 100
(§13) Delay column Isolator column, 2.1 mm X 100 mm (Waters)
(§14) Gradient 0.2 mM NH4F 0.2 mM NH4F in
(§15) 194limit of detection (LOD). The LOD is defined as three times the standard deviation of the blank
(§16) 195plus the average blank value. The limit of quantification (LOQ) is defined as 3.3 * LOD value
(§17) Blank pg/extract Recovery % Repeatability %
(§18) Detection and report limits (calculated on based of average sample intake)

female zebrafish = test: as above; set-up: species or system zebrafish (Danio rerio); conditions: 17 μg/L in water, observed
Description: as §1, §2, §3, §4, §5, §6, §7, §8, §9, §10, §11, §12, §13, §14, §15, §16, §17, §18

[3] = brain, other: exposure via tank water, 10 μg/L (nominal water concentration), read-out: Mean concentration, brain
[4] = brain, other: water exposure, 10 µg/L, read-out: Mean concentration, brain
[5] = carcass, other: exposure via tank water, 10 μg/L (nominal water concentration), read-out: Mean concentration, carcass
[6] = carcass, other: water exposure, 10 µg/L, read-out: Mean concentration, carcass
[7] = liver, other: exposure via tank water, 10 μg/L (nominal water concentration), read-out: Mean concentration, liver
[8] = liver, other: water exposure, 10 µg/L, read-out: Mean concentration, liver
[9] = ovary, other: exposure via tank water, 10 μg/L (nominal water concentration), read-out: Mean concentration, ovary
[10] = ovary, other: water exposure, 10 µg/L, read-out: Mean concentration, ovary
[11] = whole body (calculated), other: water exposure, 10 µg/L, read-out: Mean concentration, whole body (calculated)
[12] = whole body, other: exposure via tank water, 10 μg/L (nominal water concentration), read-out: Mean concentration, whole body (calculated)
[13] = whole body, other: water exposure, 10 µg/L, read-out: Mean concentration, whole body (measured)
[14] = 17 μg/L (water concentration), brain
[15] = 17 μg/L (water concentration), carcass

## Oc1ccc(C2(c3ccc(O)cc3)CCCCC2)cc1 [BPZ, bisphenol Z]
Estrogen receptor (ER)
  EC50: 210 nM
[1]; both series combined
  CL: 0.30 mL/(h x mg)
[1]; from measured S9 clearance, transformed as suggested by Nichols et al.
  CLin vivo,int (in vivo intrinsic clearance): 17.4 L/d/Kg fish
[1]; in vitro incubation with rainbow trout liver S9, assuming 163 mg S9 protein/g liver
  CL (clearance rate): 1.16 × 10^3 mL/d/g liver
[1]; series 1 (s1)
  CL: 0.33 mL/(h x mg)
  k (first-order disappearance rate constant): 0.32 h⁻¹
[1]; series 2 (s2)
  CL: 0.26 mL/(h x mg)
  k (first-order disappearance rate constant): 0.26 h⁻¹
[2]; [3]
  concentration at 12 h: 82.1 ng/g
  concentration at 483 h: 14.4 ng/g
  concentration at 486 h: 7.9 ng/g
  concentration at 492 h: < 2.5 ng/g
  concentration at 504 h: < 3 ng/g
  concentration at 576 h: < 2.5 ng/g
[2]; [4]
  concentration at 6 h: 72 ng/g
  concentration at 24 h: 116 ng/g
  concentration at 48 h: 64.4 ng/g
  concentration at 72 h: 170 ng/g
  concentration at 336 h: 156 ng/g
  concentration at 411 h: 150 ng/g
  concentration at 480 h: 61.4 ng/g
[2]; [5]
  concentration at 480 h: 249 ng/g
  concentration at 483 h: 133 ng/g
  concentration at 486 h: 24.3 ng/g
  concentration at 492 h: 18.9 ng/g
  concentration at 504 h: 8.3 ng/g
  concentration at 576 h: 1.6 ng/g
[2]; [6]
  concentration at 6 h: 160 ng/g
  concentration at 12 h: 261 ng/g
  concentration at 24 h: 671 ng/g
  concentration at 48 h: 612 ng/g
  concentration at 72 h: 1120 ng/g
  concentration at 336 h: 348 ng/g
  concentration at 411 h: 557 ng/g
[2]; [7]
  concentration at 12 h: 57.5 ng/g
  concentration at 483 h: 252 ng/g
  concentration at 486 h: 71.3 ng/g
  concentration at 492 h: 11 ng/g
  concentration at 504 h: 12.4 ng/g
  concentration at 576 h: 4.4 ng/g
[2]; [8]
  concentration at 6 h: 182 ng/g
  concentration at 24 h: 364 ng/g
  concentration at 48 h: 225 ng/g
  concentration at 72 h: 536 ng/g
  concentration at 336 h: 146 ng/g
  concentration at 411 h: 232 ng/g
  concentration at 480 h: 1010 ng/g
[2]; [9]
  concentration at 12 h: 113 ng/g
  concentration at 480 h: 69.3 ng/g
  concentration at 483 h: 108 ng/g
  concentration at 486 h: 108 ng/g
  concentration at 492 h: 84.5 ng/g
  concentration at 504 h: 48.3 ng/g
  concentration at 576 h: 1 ng/g
[2]; [10]
  concentration at 6 h: 85.3 ng/g
  concentration at 24 h: 146 ng/g
  concentration at 48 h: 146 ng/g
  concentration at 72 h: 259 ng/g
  concentration at 336 h: 269 ng/g
  concentration at 411 h: 214 ng/g
[2]; [11]
  concentration at 12 h: 203 ng/g
  concentration at 24 h: 530 ng/g
  concentration at 48 h: 500 ng/g
  concentration at 72 h: 900 ng/g
  concentration at 336 h: 296 ng/g
  concentration at 411 h: 472 ng/g
[2]; [12]
  concentration at 6 h: 130 ng/g
  concentration at 480 h: 449 ng/g
  concentration at 483 h: 128 ng/g
  concentration at 486 h: 35.1 ng/g
  concentration at 492 h: 28.2 ng/g
  concentration at 504 h: 14.5 ng/g
  concentration at 576 h: 1.5 ng/g
[2]; whole body, other: exposure via tank water, 10 μg/L (nominal water concentration), read-out: Mean concentration, whole body (measured)
  concentration at 6 h: 215 ng/g
[2]; [13]
  concentration at 12 h: 336 ng/g
  concentration at 24 h: 435 ng/g
[2]; [14]
  Cmax: 170 ng/g
  half-life: 135 h
[2]; [15]
  Cmax: 1120 ng/g
  half-life: 119 h
[2]; liver
  Cmax: 1010 ng/g
  half-life: 210 h
[2]; ovaries
  Cmax: 270 ng/g
  half-life: 247 h
[2]; whole body
  Cmax: 900 ng/g
  half-life: 134 h
Female zebrafish; brain
  AUC: 2.85 µg/g/day
  BCF: 10.0
Female zebrafish; carcass
  AUC: 12.5 µg/g/day
  BCF: 65.9
Female zebrafish; liver
  AUC: 7.07 µg/g/day
  BCF: 59.2
Female zebrafish; ovaries
  AUC: 4.70 µg/g/day
  BCF: 15.8
Female zebrafish; whole body
  AUC: 10.6 µg/g/day
  BCF: 52.9
